Source: PubChem BioAssay (NCI)
“And” between values parts separate entries of the source, which are not always exact repeats. Equal values may be shown once.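 Interpolation was linear, between the two tested concentrations surrounding the appropriate level; five concentrations were tested over 48 hours in 96-well plates. GI50 = concentration required for 50% inhibition of growth. TGI marks complete inhibition of growth.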

What was measured:
Test in all cases: growth of human tumour cells (NCI), 48 h
IGROV1 ovarian = test system: IGROV1 ovarian
SK-MEL-5 melanoma = test system: SK-MEL-5 melanoma
HL-60(TB) leukemia = test system: HL-60(TB) leukemia
OVCAR-5 ovarian = test system: OVCAR-5 ovarian
A498 renal = test system: A498 renal
UACC-62 melanoma = test system: UACC-62 melanoma
MALME-3M melanoma = test system: MALME-3M melanoma
SR leukemia = test system: SR leukemia
HCT-15 colon = test system: HCT-15 colon
NCI/ADR-RES ovarian = test system: NCI/ADR-RES ovarian

SMILES	TGI (IGROV1 ovarian) [µM]	TGI (SK-MEL-5 melanoma) [µM]	TGI (HL-60(TB) leukemia) [µM]	TGI (OVCAR-5 ovarian) [µM]	TGI (A498 renal)	TGI (UACC-62 melanoma)	TGI (MALME-3M melanoma) [µM]	TGI (SR leukemia) [µM]	TGI (HCT-15 colon) [µM]	GI50 (IGROV1 ovarian) [µM]	GI50 (SK-MEL-5 melanoma) [µM]	GI50 (NCI/ADR-RES ovarian) [µM]	TGI (NCI/ADR-RES ovarian) [µM]	GI50 (HL-60(TB) leukemia)	GI50 (OVCAR-5 ovarian) [µM]	GI50 (A498 renal)	GI50 (UACC-62 melanoma)	GI50 (MALME-3M melanoma) [µM]	GI50 (HCT-15 colon) [µM]	GI50 (SR leukemia) [µM]
O=C(Cc1c(C(=O)Nc2ccccc2)sc(C(=O)Nc2ccccc2)c1CC(=O)Nc1ccccc1)Nc1ccccc1	> 100	> 100	> 100	> 100	> 100 µM	> 100 µM	> 100													
COC1OC(CO)C(O)C(NC(=O)N(C)N=O)C1O (stereo not given)	> 100	> 100	> 100		> 100 µM		> 100	> 100	> 100											
Cc1ccc(NC(=O)CC2SC(=Nc3cccc(Cl)c3C)NC2=O)cc1 (stereo not given)	> 100	96.5		> 100	> 100 µM	> 100 µM	> 100		> 100											
Cc1cc2c(=O)cc(-c3ccc(Cl)cc3Cl)oc2c(C(=O)O)c1C	> 100	> 100		> 100		> 100 µM	> 100		> 100											
COC(=O)c1oc([N+](=O)[O-])c(-c2ccccc2)c1-c1ccccc1	> 100	> 100		> 100	> 100 µM	> 100 µM	> 100													
Cc1cc2c(cc1C)[n+](=O)c(C(=O)CC(=O)C(=O)Nc1ccccc1C)c(C)n2[O-]	> 100	> 100	> 100	> 100	> 100 µM	> 100 µM	> 100	> 100	> 100											
COc1cc2c3c(n(CCCNC(C)(C)CO)c(=O)c2cc1OC)-c1cc2c(cc1C3=O)OCO2	> 100	13.3	4.16	36.8	40.1 µM	5.23 µM	51.1		16.6	1.7	3.5	3.28	28.3	0.539 µM	16.3	17.1 µM	0.198 µM	14.8	2.04	
CCOC(=O)c1sc(Nc2cc(Cl)ccc2Cl)nc1C	> 100		> 100	> 100	> 100 µM		> 100	> 100	> 100											
CC(=O)OC1C(COC(N)=O)OC(n2c(-c3ccc(C)cc3)cc(-c3ccccc3)c(C#N)c2=O)C(OC(C)=O)C1OC(C)=O (stereo not given)	> 100	> 100		> 100	> 100 µM	> 100 µM	> 100	> 100	> 100											
CC[C@H]1[C@@H](C)C=C[C@@H](C)N1S(=O)(=O)c1ccc(C)cc1		> 100	52	> 100	> 100 µM	> 100 µM	> 100	> 100	> 100											
Fc1ccc(-c2nn3c(COc4ccccc4Cl)nnc3s2)cc1Oc1ccccc1	> 100	> 100		92.7	> 100 µM	39 µM	68.9		> 100	31	53.3	26.6	76.5		33.2	67.6 µM	17.8 µM	26.2	38.7	
O=C1C2=C(c3ccccc31)C(c1ccccc1Cl)NC(=S)N2 (stereo not given)	> 100	46	> 100	> 100	> 100 µM	> 100 µM	> 100		> 100											
CC[n+]1c(/C=C/c2ccc(N3CCCC3)cc2)cccc1/C=C/c1ccc(N2CCCC2)cc1	2.4	0.274		1.48	1.15 µM and 0.828 µM	1.7 µM and 1.67 µM	2.13		1.23	0.532	0.116	0.466	1.95	0.049 µM and 0.391 µM	0.476	0.344 µM and 0.239 µM	0.356 µM and 0.387 µM	0.293	0.332	
CCOC(=O)c1c2c(n(Cc3ccccc3)c1C)-c1nc[nH]c1C(=O)C2=O	30.6	29.8	10.3		30.1 µM		23.9	3.6	29.1	16.7	15.9			2.61 µM		16.3 µM		11.3	14.8	1.29
O=C(O)COc1ccc2c3c1C(=O)CCC3CO2 (stereo not given)	> 100	> 100	> 100	> 100	> 100 µM	> 100 µM	> 100		> 100											
OCC(O)COc1ccc(F)cc1 (stereo not given)	> 100	> 100	> 100	> 100	> 100 µM	> 100 µM	> 100	> 100	> 100											
c1ccc2c(CNCCCN3CCN(CCCNCc4cccc5ccccc45)CC3)cccc2c1	10.1	3.14	3.45	5.32	22.9 µM	3.26 µM	3.56		3.47											
Cc1cn2c(/C=N/NC3=NCCN3)c(-c3ccc(Cl)c([N+](=O)[O-])c3)nc2s1		2.3		17.2	21.4 µM	1.98 µM					0.989	7.75	21.5		6.75	9.4 µM	0.933 µM			
CC1=CC=C2C(C)(C)CC[C@@H]3OC(=O)[C@H]1[C@]23C	> 100	> 100	> 100	> 100	> 100 µM	> 100 µM	> 100	> 100												
C=CCC1=C2CCCCC2CCC1=O (stereo not given)	> 100	> 100	> 100	> 100	> 100 µM	> 100 µM	> 100		> 100											
CCCCN(CCCC)C(=O)C(=O)C(C(=O)C(=O)OC)c1nc2ccccc2o1 (stereo not given)	> 100	> 100	> 100	> 100	> 100 µM		> 100	> 100	> 100											
COc1cc(/C=C(\C)c2ccc3c(c2)OCO3)cc(OC)c1OC	> 100	24.2	> 100	> 100	83.5 µM		62.1	59.7	> 100											
